From patent publication EP0711545B1, “Aqueous mild surfactants containing preparations for cosmetic and cleaning use” (priority 1994, dated 1996) come the findings set out here.

Some results are limits rather than exact numbers.

For this data set, the system named is Rote Blutkörperchen. Kind of data set: Red blood cell test (RBC test): lysis of blood cells and denaturation of released haemoglobin. The format is cell-based. The source says:
Fettsäureamidopropylbetaine, abgeleitet von Fettsäuren unterschiedlicher Kettenlängen, werden mit Hilfe einer in-vitro-Methode, dem Rote-Blutkörperchen-Test (RBC), auf ihre physiologische Verträglichkeit untersucht.
Hierbei werden zur Charakterisierung der typischen irritativen Wechselbeziehung von Tensiden mit intakten Zellstrukturen die Zerstörung der Blutzellen durch Lyse und die Denaturierung des freigesetzten Hämoglobins gemessen. Das Ergebnis stellt der Quotient aus Lyse (L) und Denaturierung (D) L/D dar. Je kleiner der L/D-Wert ist, desto reizender ist die Substanz bzw. Formulierung einzustufen.

[1] abbreviates: Table 1: single betaines, the smaller L/D, the more irritant.
The mark [2] stands for this setting: Table 1: single fatty acid amidopropyl betaines.
The mark [3] stands for this setting: Table 3: 10 % betaine + 5 % APG in water.
Where [4] appears, read: Table 3: 10 % betaine + 5 % LSSDNa in water.
[5] abbreviates: Table 3: 10 % betaine + 5 % NaLSC in water.

For `CCCCCCCC(=O)NCCC[N+](C)(C)CC(=O)[O-]` [C8-Betain], the L/D under setting [1] is given as >> 100. Also, under setting [2], the “Denaturierung (D)” value was “keine Hämolyse” and the “Lyse (L)” value was “keine Hämolyse”.

Regarding `CCCCCCCCCCCC(=O)NCCC[N+](C)(C)CC(=O)[O-]` [C12-Betain], the L/D runs as follows: under setting [1], 8,9; under setting [3], more than 100; under setting [4], 3,8; under setting [5], 4,7. Further, the “Denaturierung (D)” value is recorded as 17 under setting [2], less than 1 under setting [3], 13 under setting [4] and 18 under setting [5]. Besides, the “Lyse (L)” value is recorded as 151 under setting [2], 81 under setting [3], 49 under setting [4] and 84 under setting [5].

With `CCCCCCCCCCCCCCCC(=O)NCCC[N+](C)(C)CC(=O)[O-]` [C16-Betain], the L/D under setting [1] was 1,0. Also, under setting [2], the “Denaturierung (D)” value was 4,4 and the “Lyse (L)” value is recorded as 4,4.

`CCCCCCCCCC(=O)NCCC[N+](C)(C)CC(=O)[O-]` [C10-Betain]: the L/D under setting [1] was >> 100. Besides, under setting [2], the “Denaturierung (D)” value is “keine Hämolyse” and the “Lyse (L)” value was “keine Hämolyse”.

On to `CCCCCCCCCCCCCC(=O)NCCC[N+](C)(C)CC(=O)[O-]` [C14-Betain], for which the L/D under setting [1] was 1,4. For the same molecule, under setting [2], the “Denaturierung (D)” value is listed as 9,2 and the “Lyse (L)” value amounted to 13.
